Data set [1] deals with Renca renal carcinoma cells. Description: cells. The format is cell-based. The source says:
The effect of Nrf2 siRNA on the killing of Renca renal carcinoma cells was examined using etoposide, another widely used anticancer drug. To generate stable Renca cell lines that over-expressed Nrf2 siRNA and non-specific scramble siRNA (SC siRNA), the siRNA sequence was converted into short hairpin RNA (shRNA) and cloned in to a BLOCK-IT U6 RNAi Entry Vector (Invitrogen). The shRNA construct was packaged into a lentiviral vector, and transduced into Renca cell lines. Recombinants were selected with antibiotic. Renca cells stably expressing Nrf2 siRNA and non-specific LacZ siRNA were screened, and two clones expressing Nrf2 siRNA showing maximum knockdown of Nrf2 message were selected for further characterization. A cell viability assay was performed using these clones using etoposide as the chemotherapeutic drug. […] Cell viability was measured using the MTT [3-(4,5-dimethylthiazol-2-yl)-2,5-diphenyltetrazolium bromide] assay after 48 hours. Briefly, cells were transfected with 50 nM siRNAs two times within a 48 h interval and, 24 hours after the second transfection, cells were plated at a density of 7,500 cells/well in 180 μl of growth media in 96-well plates. […] After 96 h, drug cytotoxicity was evaluated by using a 3-(4,5-dimethylthiazol-2-yl)-2,5-diphenyl tetrazolium bromide (MTT; Sigma) reduction conversion assay. […]

The next data set concerns Nrf2. Nature of the data set: ARE-luciferase transcriptional reporter assay. The format is cell-based, mice. As to conditions: Hepa cells stably transfected with pARE-luc; 5, 10, 50 μM. As for the experimental part: In this example, a high throughput approach to screen different chemicals for their potency to inhibit Nrf2 activation is described. A cell based transcriptional reporter assay approach was used for the identification of agents that inhibit Nrf2 mediated transcription. Hepa cells, which are mice liver carcinoma cells, were stably transfected with the ARE-luciferase reporter vector, and plated on to 96 or […] well plates. After overnight incubation, the cells were pretreated for 1-3 hours with different compounds, and challenged with a known Nrf2 activator, sulforaphane and dibenzoylmethane (DBM). Luciferase activity was measured after 6 hours following the last treatment using a commercially available system.

For another data set, the system named is Nrf2 mRNA. Description: Nrf2 transcript degradation after siRNA transfection, real time TAQMAN PCR. The format is cell-based, human. As to conditions: A549; for relative potency among the Nrf2 siRNA duplexes: Nrf2 transcript, 24 and 48 hours. How it is done: To study the degradation of Nrf2 mRNA with siRNA in a time dependent manner, a pooled mixture of the generated duplexes were transfected into A549 human non-small cell lung carcinoma cell line. As a control, a non-specific scrambled siRNA duplex (SC) was used. Transfection vehicle alone was also used as control. Total RNA was isolated after 24, 48 and 72 hours. The amount of Nrf2 transcript was measured using real time TAQMAN PCR. […] These five ND duplexes were again screened using the same assay to measure amount of Nrf2 transcript as described above.
Total RNA was extracted from lung tissues and or cells using RNeasy kit (Qiagen, Valencia Calif.) and was quantified by UV absorbance spectrophotometry. The reverse transcription reaction was performed by using the Superscript First Strand Synthesis system (Invitrogen, Carlsbad Calif.) in a final volume of 20 μl containing 2 μg of total RNA, 100 ng of random hexamers, 1× reverse transcription buffer, 2.5 mM MgCl2, 1 mM dNTP, 10 units of RNaseOUT, 20 units of Superscript reverse transcriptase, and DEPC-treated water. Quantitative real time RT-PCR analyses of Human KEAP1, NRF2, GCLc, GCLm, GSR, PRDX1, GSTA3, GSTA2, NQO1, MRP1 and MRP2 were performed by using assay on demand primers and probe sets from Applied Biosystems. Assays were performed by using the ABI 7000 Taqman system (Applied Biosystems, Foster City Calif.). β-ACTIN was used for normalization.
The siRNA sequence targeting NRF2 corresponds to the coding region 1903-1921 nt (5′-[…]-3′; SEQ ID NO:27) in the NRF2 cDNA. The NRF2 siRNA duplex with the following sense and antisense sequences was used: 5′-GUAAGAAGCCAGAUGUUAAdUdU (sense; SEQ ID NO:50) and dUd[…]-5′ (antisense; SEQ ID NO:28). To confirm the specificity of the inhibition, the siCONTROL non-targeting siRNA 1 (NS siRNA; 5′[…] 3′; SEQ ID NO:29) with microarray-defined signature was used as a negative control. All of the siRNA duplexes were synthesized by Dharmacon Research, Inc. (Lafayette). Cells in the exponential growth phase were plated at a density of 0.2×10^6 cells/ml, grown for 12 h, and transfected twice at an interval of 48 h with 50 nM siRNA duplexes using Lipofectamine 2000 and OPTI-MEMI reduced serum medium (Invitrogen, Carlsbad Calif.) according to the manufacturer's recommendations. Concentrations of siRNAs were chosen on the basis of dose-response studies.
(In general: In qPCR the cycle at which signal appears reflects the starting amount.)

On to `COc1cc([C@@H]2c3cc4c(cc3[C@@H](O[C@@H]3O[C@@H]5CO[C@@H](C)O[C@H]5[C@H](O)[C@H]3O)[C@H]3COC(=O)[C@H]23)OCO4)cc(OC)c1O` [Etoposide, etoposide], for which, in data set [1] (Renca, read-out: viable cells), the viability at 250 µM was around 100%. For the same compound, the viability in data set [1] (mouse, 48 h, 250 μM) was −60%.
With `O=C(CC(=O)c1ccccc1)c1ccccc1` [dibenzoylmethane], the luciferase activity entry in the data set with Nrf2 is reported as “increase in luciferase activity”.
Same read-out and setting: the entry for `C[S+]([O-])CCCCN=C=S` (stereo not drawn) [sulforaphane] is “increase in luciferase activity”.
Consider “ND1: siRNA duplex, Nrf2 mRNA (NM_006164) position 1686-1704; sense SEQ ID NO: 1 CUAGAGCAAGAUUUAGAUCUU, antisense SEQ ID NO: 5 (antisense GAUCUAAAUCUUGCUCUAGUU; listed as RNA, chemistry not given here)”, for which the “relative potency among the Nrf2 siRNA duplexes” value in the data set on Nrf2 mRNA is reported as “most potent”.
In the case of “ND3: siRNA duplex, Nrf2 mRNA position 1903-1921; sense SEQ ID NO: 2 GUAAGAAGCCAGAUGUUAAUU, antisense SEQ ID NO: 6 (antisense UUAACAUCUGGCUUCUUACUU; listed as RNA, chemistry not given here)”, the “relative potency among the Nrf2 siRNA duplexes” value in the data set on Nrf2 mRNA was “most potent”. Moreover, the “degradation of Nrf2 message” value in the data set with Nrf2 mRNA (after 24 and 48 hours, individual duplexes) is “maximum message degradation”.
Consider “ND4: siRNA duplex, Nrf2 mRNA position 1563-1581; sense SEQ ID NO: 3 AUGAUGUCCAAAGAGCAGUUU, antisense SEQ ID NO: 7 (antisense ACUGCUCUUUGGACAUCAUUU; listed as RNA, chemistry not given here)”, for which the “relative potency among the Nrf2 siRNA duplexes” value in the data set with Nrf2 mRNA is given as “most potent”.
Same read-out and setting: the entry for “ND5: siRNA duplex, Nrf2 mRNA position 1485-1463; antisense SEQ ID NO: 4 UUCAUCUCUUGUGAGAUGAGCCUCC, sense SEQ ID NO: 8 (sense GGAGGCUCAUCUCACAGAGAUGAA; listed as RNA, chemistry not given here)” is “most potent”.

(Values after US8216777B2, “Compositions and methods for the treatment or prevention of chemoresistant neoplasia” (The Johns Hopkins University, priority 2006, dated 2012).)
